# Source: patent publication US20230263822A1, “MODULATION OF FACTOR 11 EXPRESSION” (Ionis Pharmaceuticals, Inc., priority 2008, published 2023)
# Assays:
# platelet aggregation = test: Platelet aggregation assay, ADP and/or collagen (Example 45); assay type: in vivo, cynomolgus monkeys; settings: escalating dose regimen
# Procedure: (§1) Groups, each consisting of two male and three female monkeys, were injected subcutaneously with ISIS 416838, ISIS 416850, ISIS 416858, ISIS 416864, or ISIS 417002 in escalating doses. Antisense oligonucleotide was administered to the monkeys at 5 mg/kg three times per a week for week 1; 5 mg/kg twice per week for weeks 2 and 3; 10 mg/kg three times per week for week 4; 10 mg/kg twice per week for weeks 5 and 6; 25 mg/kg three times per week for week 7; and 25 mg/kg twice per week for weeks 8, 9, 10, 11, and 12. One control group, consisting of two male and three female monkeys, was injected subcutaneously with PBS according to the same dosing regimen. An additional experimental group, consisting of two male and three female monkeys, was injected subcutaneously with ISIS 416850 in a chronic, lower dose regimen. Antisense oligonucleotide was administered to the monkeys at 5 mg/kg three times per week for week 1; 5 mg/kg twice per week for week 2 and 3; 10 mg/kg three times per week for week 4; and 10 mg/kg twice per week for weeks 5 to 12. Body weights were measured weekly. Blood samples were collected 14 days and 5 days before the start of treatment and subsequently once per week for Factor 11 protein activity analysis in plasma, fibrinogen measurement, PT and aPTT measurements, bleeding times, and measurement of various hematologic factors. On day 85, the monkeys were euthanized by exsanguination while under deep anesthesia, and organs harvested for further analysis.
# Platelet aggregation was initiated by adding 1 mmol/L ADP and/or 3 μg collagen (depending on the collection day, as outlined in Table 121) to plasma samples, and was allowed to proceed for 10 minutes. Aggregation was characterized by recording the change in the electrical resistance or impedance and the change in the initial slope of aggregation after platelet shape change. The aggregation test was performed twice per sample on each collection day and the average value was taken. The ISIS oligonucleotide, ISIS 416850, given with the chronic dose regimen is distinguished from the other oligonucleotides with an asterisk (*).
# fibrinogen = test: Fibrinogen assay (Example 45); assay type: in vivo, cynomolgus monkeys; settings: plasma, escalating dose regimen
# Procedure: as §1
# Nine parts of fresh monkey plasma was collected into one part of trisodium citrate. The samples were evaluated of fibrinogen content using an ACL 9000 coagulation instrument (Instrumentation Laboratory, Italy). The ISIS oligonucleotide, ISIS 416850, given with the chronic dose regimen is distinguished from the other oligonucleotides with an asterisk (*).
# Factor 11 activity = test: Factor 11 protein activity, F11 assay based on clotting time (Example 45); assay type: in vivo, cynomolgus monkeys; settings: escalating dose regimen
# Procedure: as §1
# Blood samples were collected at various time points and Factor 11 proenzyme was measured using a F11 assay based on clotting time. Clotting times were determined in duplicate with a ST4 semi-automated coagulation instrument (Diagnostica Stago, NJ). Thirty μl of citrated sample plasma diluted 1/20 in HEPES-NaCl buffer with BSA was incubated with 30 μl aPTT reagent (Automated aPTT, Organon Technika, NC) and 30 μl of citrated plasma deficient of Factor 11 (George King Bio-Medical Inc.) at 37° C. for 5 min, followed by the addition of 30 μl of 25 mM CaCl2) to initiate clotting. Results were interpolated on a standard curve of serially diluted citrated control plasma.
# Results are presented in Table 118 as percent inhibition of Factor 11 activity, relative to PBS control. The ISIS oligonucleotide, ISIS 416850, given with the chronic dose regimen is distinguished from the other oligonucleotides with an asterisk (*).
# [1] = Body and organ weights of cynomolgus monkeys (Example 45); assay type: in vivo; settings: for Organ weights, Kidney / Organ weights, Liver / Organ weights, Spleen: after the animals were euthanized; for body weights: escalating dose regimen;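 on Organ weights, Kidney: absolute organ weight in grams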;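 on Organ weights, Liver: absolute organ weight in grams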;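 on Organ weights, Spleen: absolute organ weight in grams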
# Procedure: as §1
# Body weights were taken once weekly throughout the dosing regimen. […] Organ weights were taken after the animals were euthanized and livers, kidneys and spleens were harvested and weighed. […] The ISIS oligonucleotide, ISIS 416850, given with the chronic dose regimen is distinguished from the other oligonucleotides with an asterisk (*).
# [2] = mouse, in vivo
# Procedure: (§2) A control group of five mice was injected subcutaneously with PBS for 2 weeks. All experimental groups (i.e. ASO treated mice at 2, 4, 6 weeks) were compared to the control group (i.e. PBS, 2 weeks).
# Blood obtained from all mice groups were sent to Antech Diagnostics for hematocrit (HCT), mean corpuscular volume (MCV), mean corpuscular hemoglobin (MCH), and mean corpuscular hemoglobin concentration (MCHC) measurements and analyses, as well as measurements of the various blood cells, such as WBC (neutrophils, lymphocytes, and monocytes), RBC, and platelets, and total hemoglobin content.
# [3] = Tolerability in CD1 mice: liver function, ALT, AST, bilirubin, albumin (Example 33); settings: plasma, 50 mg/kg s.c. twice a week
# Procedure: as §2
# To evaluate the effect of ISIS oligonucleotides on hepatic function, plasma concentrations of transaminases were measured using an automated clinical chemistry analyzer (Hitachi Olympus AU400e, Melville, N.Y.). […] Plasma levels of bilirubin and albumin were also measured using the same clinical chemistry analyzer and expressed in mg/dL.
substance,measurement,setting,value
"ISIS 416858: MOE gapmer, nucleobases 1275 to 1318 of SEQ ID NO: 1 (Table 8) (antisense ACGGCATTGGTGCACAGTTT; MOE gapmer, wing and gap sizes not given here)",platelet aggregation,platelet aggregation; day 15 (with ADP),19 Ohms
same,platelet aggregation,platelet aggregation; day 36 (with ADP),17 Ohms
same,platelet aggregation,platelet aggregation; day 43 (with collagen),16 Ohms
same,platelet aggregation,platelet aggregation; day 57 (with ADP),11 Ohms
same,platelet aggregation,platelet aggregation; day 64 (with collagen),14 Ohms
same,platelet aggregation,platelet aggregation; day 78 (with ADP),8 Ohms
same,platelet aggregation,platelet aggregation; day 85 (with ADP),18 Ohms
same,platelet aggregation,platelet aggregation; day 85 (with collagen),23 Ohms
same,platelet aggregation,platelet aggregation; day −5 (with collagen),22 Ohms
same,fibrinogen levels,fibrinogen; day 8,246 mg/dL
same,fibrinogen levels,fibrinogen; day 15,219 mg/dL
same,fibrinogen levels,fibrinogen; day 22,222 mg/dL
same,fibrinogen levels,fibrinogen; day 29,220 mg/dL
same,fibrinogen levels,fibrinogen; day 36,225 mg/dL
same,fibrinogen levels,fibrinogen; day 43,229 mg/dL
same,fibrinogen levels,fibrinogen; day 50,259 mg/dL
same,fibrinogen levels,fibrinogen; day 57,225 mg/dL
same,fibrinogen levels,fibrinogen; day 64,236 mg/dL
same,fibrinogen levels,fibrinogen; day 71,239 mg/dL
same,fibrinogen levels,fibrinogen; day 78,234 mg/dL
same,fibrinogen levels,fibrinogen; day 85,243 mg/dL
same,fibrinogen levels,fibrinogen; day −5,246 mg/dL
same,fibrinogen levels,fibrinogen; day −14,277 mg/dL
same,"percent inhibition of Factor 11 activity, relative to PBS control",Factor 11 activity; day 8,6%
same,"percent inhibition of Factor 11 activity, relative to PBS control",Factor 11 activity; day 15,16%
same,"percent inhibition of Factor 11 activity, relative to PBS control",Factor 11 activity; day 22,23%
same,"percent inhibition of Factor 11 activity, relative to PBS control",Factor 11 activity; day 29,28%
same,"percent inhibition of Factor 11 activity, relative to PBS control",Factor 11 activity; day 36,35%
same,"percent inhibition of Factor 11 activity, relative to PBS control",Factor 11 activity; day 43,39%
same,"percent inhibition of Factor 11 activity, relative to PBS control",Factor 11 activity; day 50,49%
same,"percent inhibition of Factor 11 activity, relative to PBS control",Factor 11 activity; day 57,60%
same,"percent inhibition of Factor 11 activity, relative to PBS control",Factor 11 activity; day 64,68%
same,"percent inhibition of Factor 11 activity, relative to PBS control",Factor 11 activity; day 71,71%
same,"percent inhibition of Factor 11 activity, relative to PBS control",Factor 11 activity; day 78,73%
same,"percent inhibition of Factor 11 activity, relative to PBS control",Factor 11 activity; day 85,78%
same,"percent inhibition of Factor 11 activity, relative to PBS control",Factor 11 activity; day −5,0%
same,"percent inhibition of Factor 11 activity, relative to PBS control",Factor 11 activity; day −14,0%
same,"Organ weights, Kidney",[1],13 g
same,"Organ weights, Liver",[1],60 g
same,"Organ weights, Spleen",[1],12 g
same,Spleen weight,"[1]; cynomolgus monkeys, compared to the PBS control",shows increase in spleen weight
same,body weights,[1]; day 1,2912 g
same,body weights,[1]; day 8,2740 g
same,body weights,[1]; day 15,2760 g
same,body weights,[1]; day 22,2800 g
same,body weights,[1]; day 29,2763 g
same,body weights,[1]; day 36,2584 g
same,body weights,[1]; day 43,2607 g
same,body weights,[1]; day 50,2646 g
same,body weights,[1]; day 57,2617 g
same,body weights,[1]; day 64,2618 g
same,body weights,[1]; day 71,2865 g
same,body weights,[1]; day 78,2713 g
same,RBC count,[2],9 cells/pL
same,ALT,[3]; 2 weeks,190 IU/L
same,AST,[3]; 2 weeks,236 IU/L
same,Albumin,[3]; 2 weeks,3.4
same,Bilirubin,[3]; 2 weeks,0.57 mg/dL
same,ALT,[3]; 4 weeks,57 IU/L
same,AST,[3]; 4 weeks,108 IU/L
same,Albumin,[3]; 4 weeks,3.5
same,Bilirubin,[3]; 4 weeks,0.24 mg/dL
same,ALT,[3]; 6 weeks,216 IU/L
same,AST,[3]; 6 weeks,178 IU/L
same,Albumin,[3]; 6 weeks,2.8
same,Bilirubin,[3]; 6 weeks,0.16 mg/dL
"ISIS 416864: MOE gapmer, nucleobases 1275 to 1318 of SEQ ID NO: 1 (Table 8) (antisense GGCAGCGGACGGCATTGGTG; MOE gapmer, wing and gap sizes not given here)",platelet aggregation,platelet aggregation; day 15 (with ADP),20 Ohms
same,platelet aggregation,platelet aggregation; day 36 (with ADP),17.8 Ohms
same,platelet aggregation,platelet aggregation; day 43 (with collagen),20 Ohms
same,platelet aggregation,platelet aggregation; day 57 (with ADP),18 Ohms
same,platelet aggregation,platelet aggregation; day 64 (with collagen),17 Ohms
same,platelet aggregation,platelet aggregation; day 78 (with ADP),13 Ohms
same,platelet aggregation,platelet aggregation; day 85 (with ADP),22 Ohms
same,platelet aggregation,platelet aggregation; day 85 (with collagen),28 Ohms
same,platelet aggregation,platelet aggregation; day −5 (with collagen),27 Ohms
same,fibrinogen levels,fibrinogen; day 8,227 mg/dL
same,fibrinogen levels,fibrinogen; day 15,210 mg/dL
same,fibrinogen levels,fibrinogen; day 22,184 mg/dL
same,fibrinogen levels,fibrinogen; day 29,205 mg/dL
same,fibrinogen levels,fibrinogen; day 36,202 mg/dL
same,fibrinogen levels,fibrinogen; day 43,198 mg/dL
same,fibrinogen levels,fibrinogen; day 50,233 mg/dL
same,fibrinogen levels,fibrinogen; day 57,200 mg/dL
same,fibrinogen levels,fibrinogen; day 64,218 mg/dL
same,fibrinogen levels,fibrinogen; day 71,245 mg/dL
same,fibrinogen levels,fibrinogen; day 78,250 mg/dL
same,fibrinogen levels,fibrinogen; day 85,240 mg/dL
same,fibrinogen levels,fibrinogen; day −5,243 mg/dL
same,fibrinogen levels,fibrinogen; day −14,300 mg/dL
same,"percent inhibition of Factor 11 activity, relative to PBS control",Factor 11 activity; day 8,7%
same,"percent inhibition of Factor 11 activity, relative to PBS control",Factor 11 activity; day 15,9%
same,"percent inhibition of Factor 11 activity, relative to PBS control",Factor 11 activity; day 22,7%
same,"percent inhibition of Factor 11 activity, relative to PBS control",Factor 11 activity; day 29,10%
same,"percent inhibition of Factor 11 activity, relative to PBS control",Factor 11 activity; day 36,9%
same,"percent inhibition of Factor 11 activity, relative to PBS control",Factor 11 activity; day 43,9%
same,"percent inhibition of Factor 11 activity, relative to PBS control",Factor 11 activity; day 50,10%
same,"percent inhibition of Factor 11 activity, relative to PBS control",Factor 11 activity; day 57,7%
same,"percent inhibition of Factor 11 activity, relative to PBS control",Factor 11 activity; day 64,5%
same,"percent inhibition of Factor 11 activity, relative to PBS control",Factor 11 activity; day 71,10%
same,"percent inhibition of Factor 11 activity, relative to PBS control",Factor 11 activity; day 78,9%
same,"percent inhibition of Factor 11 activity, relative to PBS control",Factor 11 activity; day 85,8%
same,"percent inhibition of Factor 11 activity, relative to PBS control",Factor 11 activity; day −5,5%
same,"percent inhibition of Factor 11 activity, relative to PBS control",Factor 11 activity; day −14,0%
same,"Organ weights, Kidney",[1],14 g
same,"Organ weights, Liver",[1],53 g
same,"Organ weights, Spleen",[1],5 g
same,body weights,[1]; day 1,2890 g
same,body weights,[1]; day 8,2784 g
same,body weights,[1]; day 15,2817 g
same,body weights,[1]; day 22,2857 g
same,body weights,[1]; day 29,2863 g
same,body weights,[1]; day 36,3327 g
same,body weights,[1]; day 43,3355 g
same,body weights,[1]; day 50,3408 g
same,body weights,[1]; day 57,3387 g
same,body weights,[1]; day 64,3384 g
same,body weights,[1]; day 71,2942 g
same,body weights,[1]; day 78,2822 g
same,MCHC,"[2]; sc, 50 mg/kg",31%
same,ALT,[3]; 2 weeks,44 IU/L
same,AST,[3]; 2 weeks,58 IU/L
same,Albumin,[3]; 2 weeks,3.5
same,Bilirubin,[3]; 2 weeks,0.40 mg/dL
same,ALT,[3]; 4 weeks,33 IU/L
same,AST,[3]; 4 weeks,46 IU/L
same,Albumin,[3]; 4 weeks,3.6
same,Bilirubin,[3]; 4 weeks,0.26 mg/dL
same,ALT,[3]; 6 weeks,92 IU/L
same,AST,[3]; 6 weeks,101 IU/L
same,Albumin,[3]; 6 weeks,3.5
same,Bilirubin,[3]; 6 weeks,0.22 mg/dL
